Data as given in patent publication US10047104B2, “Bicyclic heterocyclyl derivatives as IRAK4 inhibitors” (Aurigene Discovery Technologies Limited, priority 2014, dated 2018).
Structures can show the parent of a compound that is named as a salt.

Biological target: T1, recombinant IRAK-4 kinase (Homo sapiens, UniProt Q9NWZ3)
T1 construct: purchased Millipore, USA
T1 sequence (Q9NWZ3 1-460): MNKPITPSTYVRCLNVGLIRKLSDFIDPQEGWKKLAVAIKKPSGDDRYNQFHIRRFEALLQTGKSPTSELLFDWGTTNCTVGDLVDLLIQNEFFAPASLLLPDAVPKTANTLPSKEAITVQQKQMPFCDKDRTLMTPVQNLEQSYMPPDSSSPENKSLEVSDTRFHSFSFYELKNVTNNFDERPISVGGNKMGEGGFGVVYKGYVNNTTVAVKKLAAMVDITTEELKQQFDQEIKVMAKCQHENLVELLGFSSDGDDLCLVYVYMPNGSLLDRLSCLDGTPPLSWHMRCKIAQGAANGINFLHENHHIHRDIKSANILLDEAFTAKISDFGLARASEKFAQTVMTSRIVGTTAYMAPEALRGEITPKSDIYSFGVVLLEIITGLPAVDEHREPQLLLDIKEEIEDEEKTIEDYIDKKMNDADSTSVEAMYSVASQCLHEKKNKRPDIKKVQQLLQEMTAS
Assay: IRAK-4 Biochemical Assay (TR-FRET)
Settings: 5 ng IRAK-4 kinase, 100 nM Biotin Histone H3, 20 μM ATP, 30 minutes pre-incubation, read-out: IC50 values for IRAK4 activity
How it was run: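 Recombinant IRAK-4 (5 ng) pre-incubated with compound 30 min at room temperature in Tris-HCl pH 7.5 with MgCl2/MnCl2, then 100 nM biotin-histone H3 and 20 μM ATP added for 30 min. Stopped with EDTA; phospho-Ser10 read by TR-FRET (Eu-antibody/APC-streptavidin).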

N[C@H]1CCN(c2cccc(C(=O)Nc3cc4sc(N5CCCCC5)nc4nc3N3CCCCC3)n2)C1 [Example 64, (S)-6-(3-aminopyrrolidin-1-yl)-N-(2,5-di(piperidin-1-yl)thiazolo[4,5-b]pyridin-6-yl)picolinamide]
IC50: < 50 nM

Cc1cc(-c2nc(C(=O)Nc3cc4sc(N5CCOCC5)nc4nc3N3CC(O)C3)co2)ccn1 [Example 80, N-(5-(3-hydroxyazetidin-1-yl)-2-morpholinothiazolo[4,5-b]pyridin-6-yl)-2-(2-methylpyridin-4-yl)oxazole-4-carboxamide]
IC50: < 50 nM

Cc1cc(-c2ccc(C(=O)Nc3cc4oc(N5CCOCC5)nc4nc3N3CCC(O)CC3)o2)ccn1 [Example 114, N-(5-(4-hydroxypiperidin-1-yl)-2-morpholinooxazolo[4,5-b]pyridin-6-yl)-5-(2-methylpyridin-4-yl)furan-2-carboxamide]
IC50: < 50 nM

O=C(Nc1cc2sc(N3CCOCC3)nc2nc1N1CCCCC1)c1coc(-c2cccnc2O)n1 [Example 55, 2-(2-hydroxypyridin-3-yl)-N-(2-morpholino-5-(piperidin-1-yl)thiazolo[4,5-b]pyridin-6-yl)oxazole-4-carboxamide]
IC50: < 50 nM

O=C(Nc1cc2sc(N3CCOCC3)nc2nc1C1CC1)c1cccc(N2CC[C@H](O)C2)n1 [Example 72, (S)—N-(5-cyclopropyl-2-morpholinothiazolo[4,5-b]pyridin-6-yl)-6-(3-hydroxypyrrolidin-1-yl)picolinamide]
IC50: < 50 nM

Nc1ccc(-c2cccc(C(=O)Nc3cnc4nc(N5CCOCC5)sc4c3)n2)cn1 [Example 16, 6′-amino-N-(2-morpholinothiazolo[4,5-b]pyridin-6-yl)-[2,3′-bipyridine]-6-carboxamide]
IC50: < 50 nM

C[C@H](O)Cn1cc(-c2nc(C(=O)Nc3cc4sc(N5CCOCC5)nc4nc3C3CC3)co2)cn1 [Example 75, (S)—N-(5-cyclopropyl-2-morpholinothiazolo[4,5-b]pyridin-6-yl)-2-(1-(2-hydroxypropyl)-1H-pyrazol-4-yl)oxazole-4-carboxamide]
IC50: < 50 nM

Cc1cc(-c2nc(C(=O)Nc3cc4sc(N5CCCC(O)C5)nc4nc3N3CCC(F)CC3)co2)ccn1 (stereo not drawn) [Example 133, N-(5-(4-fluoropiperidin-1-yl)-2-(3-hydroxypiperidin-1-yl)thiazolo[4,5-b]pyridin-6-yl)-2-(2-methylpyridin-4-yl)oxazole-4-carboxamide]
IC50: < 50 nM

Cc1cc(-c2nc(C(=O)Nc3cc4sc(N5CCOCC5)nc4nc3N3CCC[C@H](O)C3)co2)ccn1 [Example 83, (S)—N-(5-(3-hydroxypiperidin-1-yl)-2-morpholinothiazolo[4,5-b]pyridin-6-yl)-2-(2-methylpyridin-4-yl)oxazole-4-carboxamide]
IC50: < 50 nM

Cc1cc(-c2nc(C(=O)Nc3cc4sc(N5CCOCC5)nc4nc3N3CCC[C@H](N)C3)co2)ccn1 [Example 120, (S)—N-(5-(3-aminopiperidin-1-yl)-2-morpholinothiazolo[4,5-b]pyridin-6-yl)-2-(2-methylpyridin-4-yl)oxazole-4-carboxamide hydrochloride]
IC50: < 50 nM

Cc1cc(-c2nc(C(=O)Nc3cc4sc(N5CCOCC5)nc4nc3-c3ccc(F)nc3)co2)ccn1 [Example 122, N-(5-(6-fluoropyridin-3-yl)-2-morpholinothiazolo[4,5-b]pyridin-6-yl)-2-(2-methylpyridin-4-yl)oxazole-4-carboxamide]
IC50: < 50 nM

COc1ccc(-c2nc(C(=O)Nc3cc4sc(N5CCOCC5)nc4nc3N3CC[C@H](O)C3)co2)cn1 [Example 77, (S)—N-(5-(3-hydroxypyrrolidin-1-yl)-2-morpholinothiazolo[4,5-b]pyridin-6-yl)-2-(6-methoxypyridin-3-yl)oxazole-4-carboxamide]
IC50: < 50 nM

N[C@H]1CCN(c2cccc(C(=O)Nc3cc4sc(N5CCOCC5)nc4nc3N3CCCCC3)n2)C1 [Example 62, (S)-6-(3-aminopyrrolidin-1-yl)-N-(2-morpholino-5-(piperidin-1-yl)thiazolo[4,5-b]pyridin-6-yl)picolinamide]
IC50: < 50 nM

Cc1ccc(-c2nc(C(=O)Nc3cc4sc(N5CCOCC5)nc4nc3N3CCCCC3)co2)cn1 [Example 60, 2-(6-methylpyridin-3-yl)-N-(2-morpholino-5-(piperidin-1-yl)thiazolo[4,5-b]pyridin-6-yl)oxazole-4-carboxamide]
IC50: < 50 nM

Cc1cc(-c2nc(C(=O)Nc3cc4oc(N5CCOCC5)nc4nc3N[C@H]3CCNC3)co2)ccn1 [Example 11, (S)-2-(2-methylpyridin-4-yl)-N-(2-morpholino-5-(pyrrolidin-3-ylamino)oxazolo[4,5-b]pyridin-6-yl)oxazole-4-carboxamide]
IC50: < 50 nM

COc1cc(-c2nc(C(=O)Nc3cc4sc(N5CCOCC5)nc4nc3N3CCCCC3)co2)ccn1 [Example 58, 2-(2-methoxypyridin-4-yl)-N-(2-morpholino-5-(piperidin-1-yl)thiazolo[4,5-b]pyridin-6-yl)oxazole-4-carboxamide]
IC50: < 50 nM

Cc1cc(-c2nc(C(=O)Nc3cc4sc(N5CCOCC5)nc4nc3N3CCCC3)co2)ccn1 [Example 89, 2-(2-methylpyridin-4-yl)-N-(2-morpholino-5-(pyrrolidin-1-yl)thiazolo[4,5-b]pyridin-6-yl)oxazole-4-carboxamide]
IC50: < 50 nM

Nc1ccc(-c2cccc(C(=O)Nc3cc4sc(N5CCOCC5)nc4cn3)n2)cn1 [Example 13, 6′-amino-N-(2-morpholinothiazolo[4,5-c]pyridin-6-yl)-[2,3′-bipyridine]-6-carboxamide]
IC50: < 50 nM

Nc1cc(-c2ccc(C(=O)Nc3cc4sc(N5CCOCC5)nc4nc3N3CCC(O)CC3)o2)ccn1 [Example 129, 5-(2-aminopyridin-4-yl)-N-(5-(4-hydroxypiperidin-1-yl)-2-morpholinothiazolo[4,5-b]pyridin-6-yl)furan-2-carboxamide hydrochloride]
IC50: < 50 nM

COc1ccc(-c2nc(C(=O)Nc3cc4sc(N5CCOCC5)nc4nc3N3CCC(O)C3)co2)cn1 (stereo not drawn) [Example 76, N-(5-(3-hydroxypyrrolidin-1-yl)-2-morpholinothiazolo[4,5-b]pyridin-6-yl)-2-(6-methoxypyridin-3-yl)oxazole-4-carboxamide]
IC50: < 50 nM

Cc1ccc(-c2nc(C(=O)Nc3cc4oc(N5CCCCC5)nc4nc3N3CCCCC3)co2)cn1 [Example 37, N-(2,5-di(piperidin-1-yl)oxazolo[4,5-b]pyridin-6-yl)-2-(6-methylpyridin-3-yl)oxazole-4-carboxamide]
IC50: < 50 nM

Cc1ncccc1-c1nc(C(=O)Nc2cc3sc(N4CCOCC4)nc3nc2N2CCCCC2)co1 [Example 54, 2-(2-methylpyridin-3-yl)-N-(2-morpholino-5-(piperidin-1-yl)thiazolo[4,5-b]pyridin-6-yl)oxazole-4-carboxamide]
IC50: < 50 nM

Cc1cc(-c2ccc(C(=O)Nc3cc4sc(N5CCOCC5)nc4nc3N3CC[C@H](O)C3)s2)ccn1 [Example 81, (S)—N-(5-(3-hydroxypyrrolidin-1-yl)-2-morpholinothiazolo[4,5-b]pyridin-6-yl)-5-(2-methylpyridin-4-yl)thiophene-2-carboxamide]
IC50: > 100 nM

Cc1cc(-c2nc(C(=O)Nc3cc4oc(N5CCOCC5)nc4nc3N3CCCC3)co2)ccn1 [Example 112, 2-(2-methylpyridin-4-yl)-N-(2-morpholino-5-(pyrrolidin-1-yl)oxazolo[4,5-b]pyridin-6-yl)oxazole-4-carboxamide]
IC50: > 100 nM

O=C(Nc1cc2sc(N3CCCCC3)nc2nc1N1CCCCC1)c1cccc(-c2cn[nH]c2)n1 [Example 22, N-(2,5-di(piperidin-1-yl)thiazolo[4,5-b]pyridin-6-yl)-6-(1H-pyrazol-4-yl)picolinamide]
IC50: < 50 nM

Cc1cnccc1-c1nc(C(=O)Nc2cc3oc(N4CCOCC4)nc3nc2N2CCCCC2)co1 [Example 33, 2-(3-methylpyridin-4-yl)-N-(2-morpholino-5-(piperidin-1-yl)oxazolo[4,5-b]pyridin-6-yl)oxazole-4-carboxamide]
IC50: < 50 nM

Cc1cc(-c2nc(C(=O)Nc3cc4sc(N5CCCC(O)C5)nc4nc3N3CCCCC3)co2)ccn1 (stereo not drawn) [Example 124, N-(2-(3-hydroxypiperidin-1-yl)-5-(piperidin-1-yl)thiazolo[4,5-b]pyridin-6-yl)-2-(2-methylpyridin-4-yl)oxazole-4-carboxamide]
IC50: < 50 nM

Cc1cc(-c2ccc(C(=O)Nc3cc4oc(N5CCOCC5)nc4nc3N3CCC[C@@H](O)C3)o2)ccn1 [Example 115, (R)—N-(5-(3-hydroxypiperidin-1-yl)-2-morpholinooxazolo[4,5-b]pyridin-6-yl)-5-(2-methylpyridin-4-yl)furan-2-carboxamide]
IC50: < 50 nM

Cc1cc(-c2nc(C(=O)Nc3cc4oc(N5CCOCC5)nc4nc3-c3ccoc3)co2)ccn1 [Example 116, N-(5-(furan-3-yl)-2-morpholinooxazolo[4,5-b]pyridin-6-yl)-2-(2-methylpyridin-4-yl)oxazole-4-carboxamide]
IC50: < 50 nM

Cc1cc(-c2nc(C(=O)Nc3cc4sc(N5CCOCC5)nc4nc3-c3cnn(C)c3)co2)ccn1 [Example 99, N-(5-(1-methyl-1H-pyrazol-4-yl)-2-morpholinothiazolo[4,5-b]pyridin-6-yl)-2-(2-methylpyridin-4-yl)oxazole-4-carboxamide]
IC50: < 50 nM
